“Also recorded” adds a separate entry of the source.
Key:
[1] = molecular target: T1, human Sigma-1 receptor (S1R) (Homo sapiens, UniProt Q99720); assay: Radioligand competition binding at Sigma-1 receptor ([3H]-(+)-pentazocine, MCF-7-hS1R)
T1 construct: expressed in transfected cells
Experimental: Measuring receptor density with radioligand binding.
Measuring the ligand affinities at SIR and S2R receptors by radioligand binding. […] Binding conditions were the same as described previously for the S1R (Schetz, et al., 2007): binding buffer (Tris 50 mM, pH=8.1 at 37° C.), ice-cold wash buffer (Tris 10 mM, pH=8.1 at 0-2° C.), and incubation time (3 hrs at 37° C.) with shaking. Non-specific binding for the S1R and S2R was determined in the presence of 5 μM BD1063 and […] haloperidol, respectively. Following incubation, receptors were collected via rapid filtration through GF/C filters (Brandel, Gaithersburg, MD) followed by washing three times with 3 mL of ice-cold wash buffer. Dried filters were transferred to vials filled with 3.5 ml of scintillation fluid, and the radioactivity was quantified on a liquid scintillation analyzer (TRICARB® 2800TR) from Perkin Elmer (Saint Louis, MO). Mean values from duplicate or triplicate determinations are reported along with their associated standard error of the mean (SEM). Ki values were calculated from IC50 values using the Cheng-Prusoff equation. The concentration of membrane protein was determined using a PIERCE® BCA Protein Assay kit (Life Technologies, Grand Island, NY) following the manufacturer's protocol.
Referring to FIG. 1, the selectivity of potential S1R ligands over S2R was empirically evaluated. Human MCF-7 cells were used as the source of the S2R because these cells express the endogenous S2R (Vilner, John, et al., 1995; Wu & Bowen, 2008) but lack detectable levels of the S1R, allowing unambiguous detection of S2R activity in untransfected cells (Schetz, et al., 2007). MCF-7 cells stably expressing the cloned human S1R were used as the source of S1R.

[2] = Maximum tolerated dose, oral gavage 10 days; type: in vivo
Experimental: Measuring the maximum tolerated dose of Sigma receptor agonists. Male Sprague-Dawley rats (2-3 per dose) were treated by oral gavage with 6, 18, 54, 108, 135 or 150 mg/kg as estimated from in vitro functional assays and estimates of human intake when used as an antitussive. Rats received a single daily dose for 10 days. Weight, water intake, and food intake were measured daily, and rats were assessed for somnolence, activity, sensitivity to touch, and taste aversion. At the conclusion of the study, rats were humanely euthanized and brain tissue was collected and flash frozen.

[3] = system: BDNF; assay: Steady-state BDNF in brain homogenates by ELISA (rats of the maximum tolerated dose study); type: in vivo, rat; conditions: 135 mg/kg p.o., ten days
Experimental: Actions of oxeladin on BDNF in the brain. […] Cerebral cortex and hippocampal samples were homogenized in TBS supplemented with 0.1% NP-40 detergent and protease inhibitor cocktail. Protein concentrations were determined with a PIERCE® BCA assay (ThermoPierce). Samples were diluted 1:20 and assayed in triplicate according to manufacturer's instructions and assayed a FLEXSTATION® 3 plate reader (Molecular Devices, Sunnyvale, CA).

[4] = system: BDNF; assay: BDNF western blot in ischemic penumbra after tMCAO; type: in vivo, rat; conditions: single dose 135 mg/kg 48 hours after tMCAO; P=0.02
Experimental: Rats were sacrificed under isoflurane anesthesia 2, 6, or 24 hours after dosing, and brains were removed to assess protein expression in the ischemic and contralateral cortex by immunoblotting. Brains were rapidly removed, chilled for 2 min in ice-cold saline, and sliced into 2 mm coronal slices with a brain matrix for rapid 2,3,5 triphenyltetrazolium chloride (TTC) staining. Sections were immersed in 1% TTC for 1 minute at room temperature to reveal the extent of the infarct. Cortical penumbra tissue was collected, snap frozen, and stored at −80° C. for subsequent western blotting. Protein was extracted from tissue using T-PER™ reagent with HALT protease inhibitor (Thermo-Pierce), and concentrations were determined with the PIERCE® BCA assay (Thermo-Pierce). Protein was separated on 4-20% SDS-PAGE gels (BioRad) and transferred to nitrocellulose. Blots were probed with primary antibodies for BDNF (Abcam ab226842; 1:1000) and goat anti-rabbit-HRP secondary (Thermo 32260; 1:10,000). Bands were visualized by ECL with PIERCE® SUPERSIGNAL® West Dura Femto (Thermo-Pierce) reagent using a UVP EpiChemi3. Density was assessed with Image J and normalized to β-actin (Thermo MA1-91399; 1:1000).

T1 sequence (Q99720 whole entry): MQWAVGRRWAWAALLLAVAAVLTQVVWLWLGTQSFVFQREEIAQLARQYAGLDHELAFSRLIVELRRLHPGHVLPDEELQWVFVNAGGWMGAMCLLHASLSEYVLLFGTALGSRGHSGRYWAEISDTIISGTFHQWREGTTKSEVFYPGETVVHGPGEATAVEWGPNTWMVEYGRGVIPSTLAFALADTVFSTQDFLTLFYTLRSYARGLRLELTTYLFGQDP

## CCN(CC)CCOCCOC(=O)C(CC)(CC)c1ccccc1 [Oxeladin]
[1]
  selective for S1R over S2R: 9 fold
[1]; displacement of 0.5 nM [3H]-(+)-pentazocine, MCF-7 cells expressing human S1R, average of 2-3 experiments ± SEM, read-out: S1R affinity (Ki)
  Ki: 25 ± 4.3 nM
[1]; selectivity for S1R over S2R
  S2R/S1R ratio (Ki S2R/Ki S1R): 6
[2]; 6-150 mg/kg daily oral gavage, 10 days, male rats
  mortality or overt toxicity: no mortality or overt toxicity observed
[2]; rat, in vivo, po
  well-tolerated dose: ≥ 150 mg/kg
[3]
  BDNF levels in the hippocampus (ELISA): not in the hippocampus
[3]; P<0.05
  BDNF levels in the cerebral cortex (ELISA): significant increase; also recorded: significantly increase
[4]
  ratio of mature 17 kDa BDNF to 42 kDa pro-BDNF in the ischemic penumbra: significantly increased
